Source: patent US20260373165A1, “PHARMACEUTICAL COMBINATIONS AND COMPOSITIONS, AND METHODS OF USE THEREOF” (SHENZHEN HIGHTIDE BIOPHARMACEUTICAL LTD., priority 2022, published 2026)

How the values were obtained:
Type in all cases: in vivo, mouse (C57BL/6J male, 60% HFD DIO)
[1] = Example 2: body weight and body weight change rate, combined administration of HTD1801 and dapagliflozin or empagliflozin in DIO obesity model; conditions: for Body weight (mean) / Body weight change rate: HTD1801 250 mpk, dapagliflozin 10 mpk, empagliflozin 15 mpk p.o. QD, semaglutide 10 nmol/kg s.c. Q3D
Description: (§1) After 5-6-week-old C57BL/6J male mice were acclimatized for 1 week, the weight of each mouse was weighed, and the mice were randomly divided into a control group and a model group by taking the weight as a main index, where 12 mice in the control group were fed with common feed (CD), and the mice in the remaining model group were fed with 60% high-fat feed (60% HFD) for 10-12 weeks to construct a DIO obesity model, with the average body weight being not less than 40 g. The mice fed with 60% HFD were grabbed and acclimatized with a solvent for 3 days, where the acclimatization with a solvent was performed by oral gavage of 0.5% CMC-Na, once daily.
(§2) The food intake, the body weight, the body fat ratio, and the insulin level of the mice were respectively measured, followed by fasting blood glucose level, and the mice were randomly grouped according to Table 12 by taking the body weight as an index, and the remaining ungrouped mice were euthanized. After grouping, each group of mice was administered according to Table 12, the day of administration was defined as DO, and the administration volume of each drug was determined based on the results obtained by the calculation of 5 μL/g× mouse body weight (g).
(§3) For the combined administration group, the administration sequence and the administration time were kept consistent at each administration. The mice were continuously fed with high-fat feed during the administration period until the administration was finished. During administration, 1 food intake was measured per week (difference in feed weights at an interval of 24 h was measured); each group of mice was weighed once daily; blood was collected from the tail tip on day 16 and day 30, respectively, so as to measure fasting blood glucose levels once (blood was collected after fasting from 9:00 am to 3:[…]); on day 24 of administration (D23), the body fat ratio and the lean mass of each group of mice were measured by MRI (the measurement period was kept consistent with that before grouping); after 25 days of administration intervention (day 24), each group of mice was fasted for 6 h and subjected to OGTT (0 min, 15 min, 30 min, 60 min, 90 min, 120 min) to detect their blood glucose levels; after 29 days of administration intervention (day 28), each group of mice was fasted for 6 h and subjected to OGTT (0 min, 15 min, 30 min, 60 min, 90 min, 120 min), and meanwhile subjected to blood sampling via submaxillary vein (0 min, 15 min, 30 min, about 30 μL of blood sampled each time), and then the blood plasma was separated for detecting the insulin level by ELISA, where the separated blood plasma was more than 10 μL; the next day (D30) at the end of administration was set as the test endpoint, and the mice were fasted for 6 h in the morning and subjected to fasting blood glucose level measurement; subsequently, the mice were euthanized with CO2, blood was collected from the heart of each mouse for analysis, and each group of mice was dissected; the liver and subcutaneous, epididymal and mesenteric fat was collected, photographed and weighed, respectively.

[2] = Example 2: body fat mass by MRI on day 23
Description: as §1, §2, §3
The body weight, the body fat mass and the body fat ratio of each animal in groups G1 to G8 were measured on day 23 and averaged for each group, and the results are shown in Table 15 below, and FIGS. 21 and 22.

[3] = Example 2: lean mass by MRI on day 23
Description: as §1, §2, §3
The body weight, the lean mass and the lean ratio of each animal in groups G1 to G8 were measured on day 23 and averaged for each group, and the results are shown in Table 16 below, and FIGS. 23 and 24.

[4] = mean, day 23, HTD1801 250 mpk, dapagliflozin 10 mpk, empagliflozin 15 mpk p.o. QD

## CCOc1ccc(Cc2cc([C@@H]3O[C@H](CO)[C@@H](O)[C@H](O)[C@H]3O)ccc2Cl)cc1 [Dapagliflozin, dapagliflozin]
[1]; dapagliflozin 10 mpk p.o. QD
  body weight decrease: 3.4%
[1]; day 0 (baseline)
  Body weight (mean): 45.4 g
  Body weight change rate: 0.0%
[1]; day 1
  Body weight (mean): 45.5 g
  Body weight change rate: 0.3%
[1]; day 2
  Body weight (mean): 45.3 g
  Body weight change rate: −0.1%
[1]; day 3
  Body weight (mean): 45.1 g
  Body weight change rate: −0.6%
[1]; day 4
  Body weight (mean): 44.8 g
  Body weight change rate: −1.2%
[1]; day 5
  Body weight (mean): 44.3 g
  Body weight change rate: −2.4%
[1]; day 6
  Body weight (mean): 44.1 g
  Body weight change rate: −2.7%
[1]; day 7
  Body weight (mean): 44.0 g
  Body weight change rate: −2.9%
[1]; day 8
  Body weight (mean): 43.7 g
  Body weight change rate: −3.7%
[1]; day 9
  Body weight (mean): 43.4 g
  Body weight change rate: −4.4%
[1]; day 10
  Body weight (mean): 43.5 g
  Body weight change rate: −4.2%
[1]; day 11
  Body weight (mean): 43.2 g
  Body weight change rate: −4.7%
[1]; day 12
  Body weight (mean): 43.1 g
  Body weight change rate: −4.9%
[1]; day 13
  Body weight (mean): 42.6 g
  Body weight change rate: −6.1%
[1]; day 14
  Body weight (mean): 42.7 g
  Body weight change rate: −6.0%
[1]; day 15
  Body weight (mean): 42.9 g
  Body weight change rate: −5.5%
[1]; day 16
  Body weight (mean): 42.8 g
  Body weight change rate: −5.7%
[1]; day 17
  Body weight (mean): 43.2 g
  Body weight change rate: −4.7%
[1]; day 18
  Body weight (mean): 43.3 g
  Body weight change rate: −4.5%
[1]; day 19
  Body weight (mean): 43.5 g
  Body weight change rate: −4.2%
[1]; day 20
  Body weight (mean): 43.5 g
  Body weight change rate: −4.1%
[1]; day 21
  Body weight (mean): 43.9 g
  Body weight change rate: −3.3%
[1]; day 22
  Body weight (mean): 43.9 g
  Body weight change rate: −3.3%
[1]; day 23
  Body weight (mean): 43.8 g
  Body weight change rate: −3.5%
[1]; day 24
  Body weight (mean): 43.5 g
  Body weight change rate: −4.2%
[1]; day 25
  Body weight (mean): 43.9 g
  Body weight change rate: −3.2%
[1]; day 26
  Body weight (mean): 44.2 g
  Body weight change rate: −2.5%
[1]; day 27
  Body weight (mean): 44.3 g
  Body weight change rate: −2.4%
[1]; day 28
  Body weight (mean): 43.9 g
  Body weight change rate: −3.2%
[1]; day 29
  Body weight (mean): 43.8 g
  Body weight change rate: −3.4%
[2]; day 23
  increase of body fat relative to control group G2: about 8.6%
[2]; day 23, relative to control group G2
  body fat mass and body fat ratio (in words): increased
[2]; mean, day 23 (Table 15), HTD1801 250 mpk, dapagliflozin 10 mpk, empagliflozin 15 mpk p.o. QD
  Body weight: 43.8 g
[2]; [4]
  Body fat ratio: 48.8%
  Fat (body fat mass): 21.4 g
[3]; day 23, relative to model control group G2
  lean ratio (in words): slightly decreased
[3]; mean, day 23 (Table 16), HTD1801 250 mpk, dapagliflozin 10 mpk, empagliflozin 15 mpk p.o. QD
  Body weight: 43.8 g
[3]; [4]
  Lean (lean mass): 4.3 g
  Lean ratio: 9.9%
